Key:
rats = details: cited from earlier work
steroid sulphatase = molecular target: T1, steroid sulphatase (Homo sapiens, UniProt P08842); details: compared with EMATE, cited from earlier work; for E1-STS inactivation: 3-O-atom replaced by other heteroatoms
T1 sequence (P08842 22-583): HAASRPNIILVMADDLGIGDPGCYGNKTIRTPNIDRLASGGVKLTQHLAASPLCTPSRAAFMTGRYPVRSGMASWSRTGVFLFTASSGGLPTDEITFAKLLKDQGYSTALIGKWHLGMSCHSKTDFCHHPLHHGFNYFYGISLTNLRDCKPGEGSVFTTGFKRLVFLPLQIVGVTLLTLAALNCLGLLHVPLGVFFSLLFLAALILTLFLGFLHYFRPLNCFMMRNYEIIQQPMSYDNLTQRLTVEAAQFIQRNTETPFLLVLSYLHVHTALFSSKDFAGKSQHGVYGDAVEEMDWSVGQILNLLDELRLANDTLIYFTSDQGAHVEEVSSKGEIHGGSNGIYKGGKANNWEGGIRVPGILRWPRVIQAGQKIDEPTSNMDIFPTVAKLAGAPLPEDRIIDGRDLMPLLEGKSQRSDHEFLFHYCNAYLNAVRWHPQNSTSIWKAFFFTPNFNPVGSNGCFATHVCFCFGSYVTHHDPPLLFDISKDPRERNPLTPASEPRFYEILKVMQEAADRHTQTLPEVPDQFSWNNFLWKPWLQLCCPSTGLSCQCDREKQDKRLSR

steroid sulphatase (STS) = molecular target: T2, steroid sulphatase (STS) (Homo sapiens, UniProt P08842); assay: STS inhibition, IC50 (protocol not given); type: biochemical; details: assay not given
T2 construct: Placental microsomes were obtained by centrifugation of the resulting supernatant at 100,000×g for 1 h; from tissue; host or cells: human placenta (microsomes)
T2 sequence (P08842 22-583): T1 sequence (P08842 22-583)
Protocol: Sulphatase-positive human placenta from normal term pregnancies are thoroughly minced with scissors and washed once with cold phosphate buffer (pH 7.4, 50 mM) then re-suspended in cold phosphate buffer (5 ml/g tissue). Homogenisation is accomplished with an Ultra-Turrax homogeniser, using three 10 second bursts separated by 2 minute cooling periods in ice. Nuclei and cell debris are removed by centrifuging (4° C.) at 2000 g for 30 minutes and portions (2 ml) of the supernatant are stored at […] The protein concentration of the supernatants is determined by the method of Bradford (Anal. Biochem., 72, 248-254 (1976)).
Incubations (1 ml) are carried out using a protein concentration of […], substrate concentration of […] [6,7-3H]oestrone-3-sulphate (specific activity 60 Ci/mmol from New England Nuclear, Boston, Mass., U.S.A.) and an incubation time of 20 minutes at 37° C. If necessary eight concentrations of compounds are employed: 0 (i.e. control); 0.05 mM; 0.1 mM; 0.2 mM; 0.4 mM; 0.6 mM; 0.8 mM; 1.0 mM. After incubation each sample is cooled and the medium (1 ml) was pipetted into separate tubes containing [14C]oestrone (7×10^3 dpm) (specific activity 97 Ci/mmol from Amersham International Radiochemical Centre, Amersham, U.K.). The mixture is shaken thoroughly for 30 seconds with toluene (5 ml). Experiments have shown that >90% [14C]oestrone and <0.1% [3H]oestrone-3-sulphate is removed from the aqueous phase by this treatment. A portion (2 ml) of the organic phase was removed, evaporated and the 3H and 14C content of the residue determined by scintillation spectrometry. The mass of oestrone-3-sulphate hydrolysed is calculated from the 3H counts obtained (corrected for the volumes of the medium and organic phase used, and for recovery of [14C]oestrone added) and the specific activity of the substrate.
A sulphatase—positive human placenta was used as a source of placental microsomes. Tissue was homogenised and nuclei and cell debris removed by centrifugation at 2000×g for 30 min. Placental microsomes were obtained by centrifugation of the resulting supernatant at 100,000×g for 1 h.
For inhibition studies placental microsomes (125 μg/ml) were incubated in the absence or presence of inhibitors (1 pm-1.0 μM) with ^3H estrone sulphate (E1S, 2×10^5 dpm adjusted to 20 μM with unlabelled E1S for 60 mins. [4-^14C E1] (7×10^3 dpm) was added to correct for procedural losses and free and sulphated steroids separated by solvent partition using toluene. A portion of the solvent was removed and the ^3H and ^14C content determined by liquid scintillation spectrometry.

MCF-7 cells = assay: Plate Assay in MCF-7 cells; type: cell-based; details: Homo sapiens, MCF7
T47D cells = assay: Effect of Halo-EMATEs on T47D cell growth (plate assay); type: cell-based; set-up: key to Morphology: +: has effect on cell morphology; details: for inhibition at 1 µM / inhibition at 10 µM: Homo sapiens, 24 h
Protocol: Effect of Halo-EMATES on T47D Cell Growth (Plate Assay)
T47D receptor positive breast cancer cells were seeded into a 96 well cell culture plate and allowed to grow until approximately 70% confluent. Cells were treated with either vehicle (controls, tetrahydrofuran in medium) or halo-EMATEs (1 or 10 μM) and cultured for a further 24 h. At the end of this period effects of the drugs on cell numbers were determined using a microtitre plate assay (Cell Titre 96 cell proliferation assay, Promega). In this assay the conversion of substrate by untreated cells at the end of the culture period was set at 100%.

[1] = cited from earlier work
E1-STS = molecular target: T3, E1-STS (Homo sapiens, UniProt P08842); details: intact MCF-7 cells, 0.1 mM; cited from earlier work
T3 construct: endogenous in cells; host or cells: MCF-7
T3 sequence (P08842 22-583): T1 sequence (P08842 22-583)

Molecule	IC50 (steroid sulphatase (STS))	inhibition at 10 µM (MCF-7 cells)	Morphology (T47D cells)	also measured
COc1cc2c(cc1OS(N)(=O)=O)CC[C@@H]1[C@@H]2CC[C@]2(C)C(=O)CC[C@@H]12 [2-methoxyoestrone-3-O-sulphamate]				oestrogenicity (rats; rat, in vivo): devoid of oestrogenicity; potency as steroid sulphatase inhibitor (steroid sulphatase): equipotent with EMATE
C[C@]12CC[C@@H]3c4cc(Br)c(OS(N)(=O)=O)cc4CC[C@H]3[C@@H]1CCC2=O [Compound 4, 2-Bromooestrone 3-O-sulphamate]	1.65 nM	33%	+	
C[C@]12CC[C@@H]3c4cc(I)c(OS(N)(=O)=O)cc4CC[C@H]3[C@@H]1CCC2=O [Compound 7, 2-Iodooestrone 3-O-sulphamate]	6.1 nM	25%	+	
C[C@]12CC[C@@H]3c4cc(Cl)c(OS(N)(=O)=O)cc4CC[C@H]3[C@@H]1CCC2=O [Compound 10, 2-Chloroestrone 3-O-sulphamate]	0.8 nM	35%	+	inhibition at 1 µM (T47D cells): 1%; inhibition at 10 µM (T47D cells): 7.5%
C[C@]12CCC3c4cc(F)c(OS(N)(=O)=O)cc4CCC3C1CCC2=O (stereo partly shown) [Compound 13, 2-Fluorooestrone-3-O-sulphamate]	5.6 nM		+	inhibition at 1 µM (T47D cells): < 1%; inhibition at 10 µM (T47D cells): 30%
C[C@]12CC[C@@H]3c4ccc(OS(=O)(=O)O)cc4CC[C@H]3[C@@H]1CCC2=O [Compound E1S, oestrone sulphate]				half-life in blood [1]: 10 to 12 h
CC12CCC3c4ccc(OS(N)(=O)=O)cc4CCC3C1CCC2=O (stereo not shown) [EMATE, oestrone-3-O-sulphamate]				inhibition of E1-STS activity (E1-STS): more than 99%; oral uterotrophic activity relative to estradiol (rats; rats, oral): 100 times
oestrone-3-N-sulphamate				E1-STS inactivation (steroid sulphatase): weaker non-time-dependent inactivators
oestrone-3-S-sulphamate				E1-STS inactivation (steroid sulphatase): weaker non-time-dependent inactivators
